{"source": "patent US9476099B2", "about": "(TRUSTEES OF DARTMOUTH COLLEGE, priority 2012, dated 2016)", "key": {"[1]": {"test_system": "NT2/D1 cells", "test": "Cell-Titre Glo viable cell growth and survival, 3 day decitabine", "type": "cell-based", "details": "NT2/D1", "procedure": "Indicated doses of decitabine were added fresh each day for three days to exponentially growing cultures. Viable cell growth and survival were measured. Data are normalized to no drug treatment. EC cells are NT2/D1, NT2D1/R1, 833K, 833KCP, and Tera-1. Data are the average of 3 experiments in biological duplicate except for MCF-7 cells, which were assayed twice. Error bars are standard deviation (S.D.).\nCell growth and viability of five EC cell lines (NT2/D1, NT2D1/R1, 833K, 833KCP, and Tera-1) were determined, including two cell lines that are cisplatin-resistant (NT2/D1-R1 and 833KCP). Three control somatic tumor cell lines were also tested (HCT116, MCF7 and U2OS). […] Viable cell growth and survival were measured using Cell-Titre Glo (Promega) assays. […] These higher values are similar to the values shown in FIG. 1 for somatic tumor cell lines (MCF7, U2OS and HCT116).\nNT2/D1, NT2D1-R1, 833K, 833K-CP, Tera-1, U20S, and HCT116 cells were cultured in DMEM with 10% FBS supplemented with glutamine and antibiotics except for MCF7 cells that were cultured in F12-DMEM. The derivation of the NT2/D1-resistant NT2/D1-R1 cell line has been previously described (Curtin et al. 2001. Oncogene 20:2559-2569; Kerley-Hamilton et al. 2007. Biochim. Biophys. Acta 1769:209-219). Cells were treated with the indicated dosages of 5-azadeoxycytidine (5-aza-CdR) for 3 days. This drug was replenished each day. Cisplatin (Bristol Laboratories) treatments were performed at the concentrations and time points indicated. To assess cell proliferation and survival, CELL-TITRE GLO (Promega) assays were performed.\n(§1) Cells were cultured in DMEM media (Gibco) with 10% FBS. Decitabine was added fresh each day. Lentiviral control cells and the stable shRNA DNMT3B knockdown cell line (NT2/D1-R1-sh84) were described previously (Beyrouthy et al. 2009. Cancer Res. 69:9360-9366). DNMT3B knockdown was greater than 90% as confirmed by western blot analysis. Cell proliferation and survival were assessed with the CELL-TITRE GLO assay (Promega). Cell cycle analysis with propidium iodine has been previously described (Kerley-Hamilton et al. 2005. Oncogene 24:6090-6100)."}, "[2]": {"test_system": "NT2/D1 cells", "test": "Apoptosis by PARP cleavage and sub G1 DNA content", "type": "cell-based", "details": "cisplatin 0.5 μM; NT2/D1 versus NT2/D1-R1", "procedure": "as §1\n(§2) SYBR green-based real-time PCR (Applied Biosystems) was employed using the ddCT method normalized to GAPDH. For western blot analysis cells were lysed in radioimmune precipitation buffer and separated by SDS-PAGE. Antibodies to actin (sc01615, Santa Cruz), 139-H2AX (Cell Signaling), PARP (c-2-10, Biomol International) and p53 (D0-1, Santa Cruz) were used."}, "[3]": {"test_system": "NT2/D1-R1 cells", "test": "Apoptosis by PARP cleavage and sub G1 DNA content", "type": "cell-based", "details": "cisplatin; cisplatin-resistant NT2/D1-R1", "procedure": "(§3) Importantly, decitabine-mediated H2AX activation also occurs in the presence of the caspase 3 inhibitor (Z-VAD-FMK) at concentrations that inhibit PARP cleavage.\nas §1, §2"}, "[4]": {"test_system": "phosphorylated H2AX in NT2/D1-R1 cells", "test": "DNA damage by induction of phosphorylated H2AX (western blot)", "type": "cell-based", "details": "cisplatin", "description": "as §3, §2"}, "[5]": {"test_system": "NT2/D1 cells", "test": "Gene expression microarray with PAM cluster analysis (Tables 1-5)", "type": "cell-based, human", "procedure": "The cisplatin treatment protocol has been previously described (Kerley-Hamilton et al. 2005. Oncogene 24:6090-6100).\nThe same effect was not observed in cells treated with cisplatin; gene expression levels were not dramatically altered in cisplatin-treated cells. […] The genes clustered into distinct patterns.\nNext, partitioning around medoids (PAM) analysis was performed on the 1130 genes whose expression levels changed by 1.5-fold or greater as compared to control treatment. […] Changes in gene expression levels of representative genes for each cluster were confirmed in independent samples by real-time PCR (FIG. 10).\n(§4) Expression analysis was performed on the […] HumanHT-12 v3 or […] HumanHT-12 v4 bead chip arrays ([…]) and scanned on the BeadArray Reader ([…]) according to manufacturer's instructions."}, "[6]": {"test_system": "NT2 cells", "test": "Gene set enrichment analysis (GSEA) of microarray data (Table 6)", "type": "cell-based, human", "details": "Gene Sets Enriched in NT2 Cells with Cisplatin Treatment (0.5 μM for 3 days)", "procedure": "Gene set enrichment analysis (GSEA) was performed.\nas §4"}}}
{"smiles": "N.N.[Cl][Pt][Cl]", "note": "[cisplatin]", "values": [{"measurement": "effects on cell viability and proliferation", "setting": "[1]; after 1 day of cisplatin treatment", "result": "minimal"}, {"measurement": "effects on cell viability and proliferation", "setting": "[1]; by day two of cisplatin treatment", "result": "robust anti-proliferation and cell death effects"}, {"measurement": "apoptotic responses (PARP cleavage, sub G1 DNA content)", "setting": "[2]", "result": "induces these responses only in cisplatin-sensitive NT2/D1 cells"}, {"measurement": "PARP cleavage", "setting": "[3]", "result": "does not induce PARP cleavage"}, {"measurement": "induction of phospho-H2AX", "setting": "[4]", "result": "can induce phospho-H2AX"}, {"measurement": "Cluster 2: unique genes whose expression levels were increased only by cisplatin treatment", "setting": "[5]; 0.5 μM cisplatin 6 hours, 24 hour recovery", "result": 81, "unit": "genes"}, {"measurement": "Cluster 3: genes upregulated by both decitabine treatment and cisplatin treatment", "setting": "[5]; 1.5-fold or greater", "result": 71, "unit": "genes"}, {"measurement": "Cluster 5: genes down-regulated by both decitabine treatment and cisplatin treatment", "setting": "[5]; 1.5-fold or greater", "result": 88, "unit": "genes"}, {"measurement": "NES, AMIT_EGF_RESPONSE_120_MCF10A", "setting": "[6]", "result": "−2.2779"}, {"measurement": "NES, AMIT_EGF_RESPONSE_480_HELA", "setting": "[6]", "result": "−2.5999"}, {"measurement": "NES, AMUNDSON_DNA_DAMAGE_RESPONSE_TP53", "setting": "[6]", "result": "−2.2828"}, {"measurement": "NES, CONCANNON_APOPTOSIS_BY_EPOXOMICIN_UP", "setting": "[6]", "result": "−2.2899"}, {"measurement": "NES, DACOSTA_UV_RESPONSE_VIA_ERCC3_UP", "setting": "[6]", "result": "−2.3411"}, {"measurement": "NES, INGA_TP53_TARGETS", "setting": "[6]", "result": "−2.3095"}, {"measurement": "NES, KANNAN_TP53_TARGETS_UP", "setting": "[6]", "result": "−2.5961"}, {"measurement": "NES, KERLEY_RESPONSE_TO_CISPLATIN_UP", "setting": "[6]", "result": "−3.0393"}, {"measurement": "NES, SCHAVOLT_TARGETS_OF_TP53_AND_TP63", "setting": "[6]", "result": "−2.4114"}, {"measurement": "NES, WEIGEL_OXIDATIVE_STRESS_RESPONSE", "setting": "[6]", "result": "−2.3010"}]}
